The experiment has as its target T1, HIV-1 protease (Human immunodeficiency virus type 1 group M subtype B, UniProt P04585).
T1 construct: the enzyme HIV-1 protease; purchased BACHEM AMERICAS (King of Prussia, Pa.)
Nature of the experiment: Kinetic parameter determination: hydrolysis of chromogenic substrate by HIV-1 PR monitored at 300 nm. It counts as biochemical. The settings on record: substrate hydrolysis by HIV-1 PR, 25° C., pH 4.9 assay buffer. The procedure:
The synthetic chromogenic substrate, H-His-Lys-Ala-Arg-Val-Leu*Nph-Glu-Ala-Nle-Ser-NH2 (SEQ ID NO:3) and the enzyme HIV-1 protease (0.65 milligrams per milliliter (mg/mL), 16 International Units per milligram (IU/mg)) were purchased from BACHEM AMERICAS (King of Prussia, Pa.).
A stock solution containing 1 mg/mL of the chromogenic substrate in HIV PR assay buffer (50 millimolar (mM) sodium acetate, pH 4.9, 200 mM NaCl, 5 mM diothiothreitol (DTT), 10% (v/v) glycerol) was prepared by dissolving 5 mg chromogenic substrate in 5 mL of assay buffer. A substrate solution at a concentration of 101 micromolar (μM) was prepared in HIV-PR assay buffer from the substrate stock in a sample cup of Roche COBAS FARA. The stock mixture of HIV-1 PR as received was then diluted by 20-fold into this mixture. The hydrolysis of substrate by HIV-1 PR was monitored at 300 nm at 25° C. on a ROCHE DIAGNOSTICS COBAS FARA instrument.
A stock solution containing the chromogenic substrate at a concentration of 3 mg/mL was prepared by dissolving 5 mg chromogenic substrate in 1.67 mL of the assay buffer as described in Example 1. A series of substrate solutions were prepared in the HIV-PR assay buffer over the concentration range of 0-2282 μM. The stock solution of HIV-1 PR was then diluted by 20-fold into HIV PR assay buffer. The hydrolysis of substrate by HIV-1 PR was monitored at 300 nm at 25° C. on a ROCHE DIAGNOSTICS COBAS FARA instrument, as described in Example 1.

We go through one compound from patent US20040014030A1, “Enzymatic assay of HIV protease inhibitors” (priority 2002, published 2004).

Where a SMILES comes first, the peptide text is derived from it.

As usually defined, the Km is the concentration of substrate that gives half-maximal velocity. For `CCCC[C@H](NC(=O)[C@H](C)NC(=O)[C@H](CCC(=O)O)NC(=O)[C@H](Cc1ccc([N+](=O)[O-])cc1)NC(=O)[C@H](CC(C)C)NC(=O)[C@@H](NC(=O)[C@H](CCCNC(=N)N)NC(=O)[C@H](C)NC(=O)[C@H](CCCCN)NC(=O)[C@@H](N)Cc1c[nH]cn1)C(C)C)C(=O)N[C@@H](CO)C(N)=O` [chromogenic substrate, H-His-Lys-Ala-Arg-Val-Leu*Nph-Glu-Ala-Nle-Ser-NH2] (HELM PEPTIDE1{H.K.A.R.V.L.[O=C([C@H](Cc1ccc([N+](=O)[O-])cc1)N[*:1])[*:2]].E.A.[Nle].S.[am]}$$$$V2.0), the “apparent Vmax” value came out at 156.81 µmol/mg/min and the apparent kcat came out at 58.02 s⁻¹. Further, the Michaelis-Menten constant (Km) (substrate 0-2282 μM, read-out: apparent Km) amounted to 67 ± 7.55 µM.
